Data: patent US10213451B2, “Methods and compounds for modulating the secretion or expression of adhesion proteins or angiopoietins of cells” (PACIFIC ARROW LIMITED, priority 2004, dated 2019)

Assays:
Format in all cases: cell-based, human
[1] = tested on: integrin (vitronectin receptor) expression in ES2 cells; experiment: Microarray gene expression, Table 2
Procedure: (§1) Y/D is the ratio (in folds) of gene expression in cells treated with compound Y as compared with those of the no drug control (D),
(§2) YM/D is the ratio of gene expression in cells treated with compound YM (ACH-Y, Y without sugar moiety) compared with those of the no drug control (D)
(§3) Cell culture and drug-treatment.: ES2 cells were seeded in a T-25 flask with 4.5 million cells per flask for 24 hours. Cell culture was replaced with fresh medium with xanifolia-Y (Y) or DMSO no drug control (D) for 24 hours. Cells were then harvested for RNA isolation. Three experiments were done.
(§4) RNA extraction, labeling, hybridization, and data analysis. RNA was extracted from tumor cells using the Qiagen RNeasy Kit. RNA quality and quantity was checked by the Agilent BioAnalyzer and the NanoDrop® ND-1000 spectrophotometer respectively before further manipulation. The first and second cDNA strands were synthesized from 20 ng of total RNA using the Affymetrix T7 oligo(dT) primer protocol and kit for the two-cycle amplification. To produce amplified biotin-labeled-cRNA, the cDNA was […] by in vitro transcription using the MegaScript kit from Ambion. 15.0 μg of the labeled cRNA was fragmented and re-checked for concentration using the NanoDrop® ND-1000 spectrophotometer. A hybridization cocktail containing Affymetrix spike-in controls and fragmented labeled cRNA was loaded onto the Human U133 Plus 2.0 GeneChip® oligonucleotide array. The Affymetrix array (Affymetrix, Inc. Santa Clara, Calif.) is comprised of over 1,300,000 unique oligonucleotide features that represent greater than 38,500 well-substantiated human genes. The array was hybridized for 16 hours at 45° C. with rotation at 60 rpm then washed and stained with a strepavidin, R-phycoerythrin conjugate stain on the Affymetrix Fluidicis Station 450. Signal amplification was done using biotinylated antistreptavidin. The arrays were scanned using the GeneChip® 3000 confocal laser scanner with autoloader. The images were analyzed and quality control metrics recorded using Affymetrix GCOS software version 1.4. Lastly, the expression value for each gene was calculated using dChip PM-only model based or Plier algorithm.
(§5) Pairwise comparisons were made as follows: Treated vs. Control (Y vs. D), Modified Drug vs Control (YM/ACY-H vs. D) and Treated vs. Modified Drug (Y vs. YM/ACH-Y) Cel files analyzed using the Bioconductor package of R Statistical programming. Limma analysis generated a reasonable number of changing genes between the samples.
The raw data in the .CEL files were normalized by the GCRMA method (robust multi-array analysis). It is implemented in Bioconductor (http://www.bioconductor.org/). […]

[2] = tested on: integrin expression in ES2 cells; experiment: Microarray gene expression, Table 6; conditions: for ITGA3 integrin, alpha 3, gene expression ratio to no drug control (D): probe 201474_s_at; for ITGAV integrin, alpha V (vitronectin receptor), gene expression ratio to no drug control (D): probe 202351_at; for ITGB5 Integrin, beta 5, gene expression ratio to no drug control (D): probe 214021_x_at; for CD47 antigen (integrin-associated signal transducer), gene expression ratio to no drug control (D): probe 227259_at; for ITGB2 integrin, beta 2, gene expression ratio to no drug control (D): probe 1555349_a_at; for expression ratio to the control, integrin family: span over probes of Table 6
Procedure: as §1, §2, §3, §4, §5
(§6) The raw data in the .CEL files were normalized by the GCRMA method (robust multi-array analysis). It is implemented in Bioconductor (http://www.bioconductor.org/). The raw signal intensity data were normalized, background corrected and summarized based on certain statistical models, and an expression value, in log 2-scale, is obtained per chip per probe set. Then the null hypothesis was tested that there's no significant changes in gene expression between the treatment pairs. This was done by LIMMA and is also implemented in Bioconductor. It uses empirical Bayes method to estimate the variance in gene expression. One comparison was made, namely, High Grade vs. Low Grade. The raw p-values were adjusted by the Benjamnin-Hochberg method for false discovery rate (FDR) control. All data sets contained a significant number of genes with a p-value less than 0.05, which is that the probability that a gene is NOT differential expressed (false positive) is 1:20.

[3] = tested on: heparin sulfate expression in ES2 cells; experiment: Microarray gene expression, Table 10; conditions: for HSPG2 heparan sulfate proteoglycan 2 (perlecan), gene expression ratio to no drug control (D): probe 201655_s_at; for HS2ST1 heparan sulfate 2-O-sulfotransferase 1, gene expression ratio to no drug control (D): probe 203284_s_at; for HPSE Heparanase, gene expression ratio to no drug control (D): probe 219403_s_at
Procedure: as §1, §2, §3, §4, §5, §6

[4] = tested on: regulator of G-protein expression in ES2 cells; experiment: Microarray gene expression, Table 14
Procedure: as §1, §2, §3, §4, §5, §6

[5] = tested on: phosphatase, protein expression in ES2 cells; experiment: Microarray gene expression, Table 19
Procedure: as §1, §2, §3, §4, §5, §6

[6] = tested on: Fibronectin secretion from lung carcinoma cells (H460); experiment: Fibronectin secretion (Western blot), H460 cells; conditions: for % inhibition of Fibronectin secretion: H460 cells
[7] = tested on: Fibronectin secretion from liver HepG2 cells; experiment: Fibronectin secretion (Western blot), HepG2 cells
[8] = tested on: Fibronectin secretion from brain glioblastoma T98G cells; experiment: Fibronectin secretion (Western blot), T98G cells; conditions: for inhibition at 20 µg/mL: 20 ug/ml

Structure (SMILES)	ITGAV integrin, alpha V (vitronectin receptor), gene expression ratio to no drug control (D) ([1]; probe 202351_at) [folds]	ITGAV integrin, alpha V (vitronectin receptor), gene expression ratio to no drug control (D) ([1]; probe 236251_at) [folds]	ITGA3 integrin, alpha 3, gene expression ratio to no drug control (D) [2] [folds]	ITGA6 integrin, alpha 6, gene expression ratio to no drug control (D) ([2]; probe 201656_at) [folds]	ITGAV integrin, alpha V (vitronectin receptor), gene expression ratio to no drug control (D) [2] [folds]	ITGBL1 Integrin, beta-like 1, gene expression ratio to no drug control (D) ([2]; probe 205422_s_at) [folds]	ITGA4 integrin, alpha 4, gene expression ratio to no drug control (D) ([2]; probe 205884_at) [folds]	ITGA4 integrin, alpha 4, gene expression ratio to no drug control (D) ([2]; probe 205885_s_at) [folds]	ITGA4 integrin, alpha 4, gene expression ratio to no drug control (D) ([2]; probe 213416_at) [folds]	ITGB5 Integrin, beta 5, gene expression ratio to no drug control (D) [2] [folds]	ITGBL1 Integrin, beta-like 1, gene expression ratio to no drug control (D) ([2]; probe 214927_at) [folds]	ITGA6 integrin, alpha 6, gene expression ratio to no drug control (D) ([2]; probe 215177_s_at) [folds]	CD47 antigen (integrin-associated signal transducer), gene expression ratio to no drug control (D) [2] [folds]	ITGB2 integrin, beta 2, gene expression ratio to no drug control (D) [2] [folds]	ITGBL1 Integrin, beta-like 1, gene expression ratio to no drug control (D) ([2]; probe 1557080_s_at) [folds]	expression ratio to the control, integrin family [2] [folds]	HSPG2 heparan sulfate proteoglycan 2 (perlecan), gene expression ratio to no drug control (D) [3] [folds]	HS2ST1 heparan sulfate 2-O-sulfotransferase 1, gene expression ratio to no drug control (D) [3] [folds]	HPSE Heparanase, gene expression ratio to no drug control (D) [3] [folds]	RGS4 regulator of G-protein signalling 4, gene expression ratio to no drug control (D) ([4]; probe 204337_at) [folds]	also measured
C/C=C(/C)C(=O)O[C@H]1[C@H](OC(=O)/C(C)=C\C)[C@@]2(CO)C(CC1(C)C)C1=CCC3[C@@]4(C)CC[C@H](O)C(C)(C)C4CC[C@@]3(C)[C@]1(C)[C@@H](O)[C@H]2O (stereo partly drawn) [ACH-Y]	−1.3	−1.4	−1.5	−1.1	−1.3	−2.0	−1.7	−2.0	−1.7	−2.2	−1.8	1.1	−1.1	−1.4	−2.5	−1.1 to −2.5	−1.3	−1.7	−1.3	−1.1	RGS4 regulator of G-protein signalling 4, gene expression ratio to no drug control (D) ([4]; probe 204338_s_at): −1.1 folds; RGS4 regulator of G-protein signalling 4, gene expression ratio to no drug control (D) ([4]; probe 204339_s_at): −1.2 folds; PPP1R15A protein phosphatase 1, regulatory (inhibitor) subunit 15A, gene expression ratio to no drug control (D) ([5]; probe 37028_at): 5.6 folds; PPP1R15A protein phosphatase 1, regulatory (inhibitor) subunit 15A, gene expression ratio to no drug control (D) ([5]; probe 202014_at): 6.2 folds; DUSP10 dual specificity phosphatase 10, gene expression ratio to no drug control (D) ([5]; probe 215501_s_at): 7.1 folds; DUSP10 dual specificity phosphatase 10, gene expression ratio to no drug control (D) ([5]; probe 221563_at): 5.7 folds; inhibition at 20 µg/mL ([6]; Homo sapiens, NCI-H460, H460 cells, 20 ug/ml): 28%; inhibition at 30 µg/mL ([7]; Homo sapiens, HepG2, HepG2 cells, 30 ug/ml): 21%; inhibition at 20 µg/mL ([8]; Homo sapiens, T98G): 30%
C/C=C(/C)C(=O)O[C@H]1[C@H](OC(=O)/C(C)=C\C)[C@@]2(CO)C(CC1(C)C)C1=CCC3[C@@]4(C)CC[C@H](O[C@@H]5OC(C(=O)O)[C@@H](O)C(O[C@@H]6O[C@@H](CO)C(O)C6O)C5O[C@@H]5OC(CO)[C@H](O)C(O)C5O)C(C)(C)C4CC[C@@]3(C)[C@]1(C)[C@@H](O)[C@H]2O (stereo partly drawn) [Xanifolia-Y, 3-O-[β-D-galactopyranosyl (1→2)]-α-L-arabinofuranosy (1→3)-β-D-glucuronopyranosyl-21,22-O-diangeloyl-3β, 15α, 16α, 21β, 22α, 28-hexahydroxyolean-12-ene]	−1.8	−1.4	−1.6	−1.5	−1.8	−1.9	−1.6	−1.7	−1.6	−1.5	−1.7	−1.6	−1.6	−1.6	−1.7	−1.5 to −1.9	−2.4	−1.3	−1.4	−3.4	RGS4 regulator of G-protein signalling 4, gene expression ratio to no drug control (D) ([4]; probe 204338_s_at): −2.5 folds; RGS4 regulator of G-protein signalling 4, gene expression ratio to no drug control (D) ([4]; probe 204339_s_at): −3.5 folds; PPP1R15A protein phosphatase 1, regulatory (inhibitor) subunit 15A, gene expression ratio to no drug control (D) ([5]; probe 37028_at): 2.4 folds; PPP1R15A protein phosphatase 1, regulatory (inhibitor) subunit 15A, gene expression ratio to no drug control (D) ([5]; probe 202014_at): 2.6 folds; DUSP10 dual specificity phosphatase 10, gene expression ratio to no drug control (D) ([5]; probe 215501_s_at): 3.2 folds; DUSP10 dual specificity phosphatase 10, gene expression ratio to no drug control (D) ([5]; probe 221563_at): 3.8 folds; % inhibition of Fibronectin secretion ([6]; 20 ug/ml): 20-60%; % inhibition of Fibronectin secretion ([6]; 20 ug/ml, listed as Y): over 60%; inhibition at 10 µg/mL ([6]; Homo sapiens, NCI-H460, H460 cells, 10 ug/ml): 19%; % inhibition of Fibronectin secretion ([7]; HepG2 cells, 10 ug/ml): 48%; inhibition at 10 µg/mL ([7]; Homo sapiens, HepG2, HepG2 cells, 10 ug/ml): 42%; % inhibition of Fibronectin secretion ([8]; 10 ug/ml, listed as Y3): 26%; inhibition at 10 µg/mL ([8]; Homo sapiens, T98G, 10 ug/ml): 27%; inhibition at 20 µg/mL ([8]; Homo sapiens, T98G): 74%
